The results in this text go back to PMC7793009 (ACS infectious diseases, 2020).

SMILES strings stand for the structures. Read-outs that look alike come from different tables or passages of the source.

One series deals with endogenous Nrf2. It is filed as cell-based.
In series [1] the test system is mVP24-induced ARE activity. Description: siRNA. As to conditions: two p53 siRNAs vs scramble, mVP24/ARE HEK293T, 24 h treatment. The series is classed as cell-based.
Series [2] concerns the target constitutively expressed firefly luciferase (ce-FF) (Photinus pyralis, UniProt P08659). Put plainly: cell-based. It is filed as cell-based.
The test system of another series is p62-induced ARE activity. Put plainly: cells. It is filed as cell-based. As to conditions: read-out: ARE/p62 IC50.
Series [3] has as its system mVP24-induced ARE activity. Put plainly: ARE/mVP24 firefly luciferase reporter assay. It is filed as cell-based. As to conditions: plateau around 1 μM of compound.
A further series is described as follows: in vitro. Particulars: human.
The next series concerns NF-κB. Description: cells. As to conditions: read-out: NF-κB IC50. It is filed as cell-based.
For series [4], the system named is tBHQ-induced ARE activity. Description: cells. The series is classed as cell-based. As to conditions: read-out: ARE/GFP/tBHQ IC50.
The next series concerns Flag-tagged mVP24. It is filed as cell-based, Marburg virus.
Series [5] concerns ARE activity induced by over-expression of Nrf2. Description: cells. The series is classed as cell-based. Particulars: for IC50: read-out: ARE/Nrf2 IC50.
In the next series the test system is HEK293T cells. As to conditions: 24 h, ATP content (CellTiter-Glo). On the technique in general: In ATP-based viability assays light output follows the ATP content of the culture.

Sequence of constitutively expressed firefly luciferase (ce-FF) (P08659 whole entry): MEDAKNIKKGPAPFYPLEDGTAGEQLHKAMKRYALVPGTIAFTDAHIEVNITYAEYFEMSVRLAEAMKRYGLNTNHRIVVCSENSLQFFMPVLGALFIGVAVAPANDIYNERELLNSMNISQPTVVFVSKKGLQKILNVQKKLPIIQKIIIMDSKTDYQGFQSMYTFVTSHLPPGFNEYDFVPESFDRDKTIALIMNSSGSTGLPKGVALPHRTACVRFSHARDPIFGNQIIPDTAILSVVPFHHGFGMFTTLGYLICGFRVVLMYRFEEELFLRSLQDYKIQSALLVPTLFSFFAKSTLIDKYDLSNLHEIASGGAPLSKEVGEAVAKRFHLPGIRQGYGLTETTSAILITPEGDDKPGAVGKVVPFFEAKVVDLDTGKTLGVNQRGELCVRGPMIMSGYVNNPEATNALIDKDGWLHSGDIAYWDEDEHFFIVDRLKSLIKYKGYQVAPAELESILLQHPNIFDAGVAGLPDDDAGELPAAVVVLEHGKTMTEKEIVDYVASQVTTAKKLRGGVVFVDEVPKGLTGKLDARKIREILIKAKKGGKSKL

Regarding `O=C(N[C@@H]1CCCc2c1[nH]c1ccc(Cl)cc21)c1ccccn1` [GSK983], the “Nrf2 expression relative to DMSO control” value with endogenous Nrf2 was “decreased”. Further, in [1], the “effect of p53 knockdown on inhibition of mVP24-induced ARE activity” value is “did not result in a reversal of inhibition”.
Turning to `COc1cc([C@@H]2c3cc4c(cc3[C@H](O)[C@H]3COC(=O)[C@H]23)OCO4)cc(OC)c1OC` [Podophyllotoxin, podophyllotoxin], the IC50 in [2] is more than 50 µM; with p62-induced ARE activity (Homo sapiens, HEK-293T, 24 h), 3.1 µM; with NF-κB (Homo sapiens, HEK-293T, 6 h) it was more than 50 µM; in series [4] (Homo sapiens, HEK-293T, 24 h), 0.026 µM; in series [5] (Homo sapiens, HEK-293T, 24 h), more than 50 µM. Also, the “plateau of inhibitory activity against mVP24-induced ARE activity” value in series [3] is “approximately 80%”. Moreover, in the series with endogenous Nrf2 (ARE/mVP24 HEK293T cells, 1 and 5 μM, 24 h, western blot), the “Nrf2 expression relative to DMSO control” value was “affected”. This compound also gave a CC50 at 24 h in the series “in vitro” of more than 50 µM. Besides, the “mVP24 expression relative to DMSO control” value in the series with Flag-tagged mVP24 was “affected”. Further, the “inhibition of ARE activity following over-expression of Nrf2 (in words)” value in series [5] (ARE/Nrf2 assay) is given as “did not inhibit”.
In the case of `Nc1ncnc2c1c(I)cn2[C@@H]1O[C@H](CO)[C@@H](O)[C@H]1O` [5-iodotubercidin], the IC50 in [2] (read-out: Ce-FF IC50) amounted to 15 µM; in the series with p62-induced ARE activity it was 0.058 µM; with NF-κB it was 6.5 µM; in series [4], 0.2 µM; in series [5], 1.2 µM. In the series on HEK293T cells, the CC50 was more than 50 µM.
